Laboratory results reported in paper PMC6480460, “Derivatives of the β-Crinane Amaryllidaceae Alkaloid Haemanthamine as Multi-Target Directed Ligands for Alzheimer’s Disease” (Molecules, 2019).

Experiments:
[1] = tested on: MRC-5 (normal lung fibroblasts); assay: WST-1 cytotoxicity assay, MRC-5; format: cell-based; conditions: Homo sapiens, MRC5; c = 10 μM, 48 h, percent of proliferation of untreated control cells; read-out: Cell proliferation, MRC-5
Text: (§1) Selected human tumor and non-tumor cell lines {Jurkat (acute T cell leukemia), MOLT-4 (acute lymphoblastic leukemia), A549 (lung carcinoma), HT-29 (colorectal adenocarcinoma), PANC-1 (pancreas epithelioid carcinoma), A2780 (ovarian carcinoma), HeLa (cervix adenocarcinoma), MCF-7 (breast adenocarcinoma), SAOS-2 (osteosarcoma) and MRC-5 (normal lung fibroblasts)} were purchased from either ATCC (Manassas, VA, USA) or Sigma-Aldrich (St. Louis, MO, USA) and cultured according to the provider’s culture method guidelines. […] Cells in the maximum range of either 10 passages for primary cell line (MRC-5), or in the maximum range of 20 passages for cancer cell lines (Jurkat, MOLT-4, A549, HT-29, PANC-1, A2780, HeLa, MCF-7 and SAOS-2) and in an exponential growth phase were used for this study.
(§2) The WST-1 (Roche, Mannheim, Germany) reagent was used to determine the cytostatic effect of the test compounds. WST-1 is designed for the spectrophotometric quantification of cell proliferation, growth, viability and chemosensitivity in cell populations using a 96-well-plate format (Sigma, St. Louis, MO, USA). The principle of WST-1 is based on photometric detection of the reduction of tetrazolium salt to a colored formazan product. The cells were seeded at a previously established optimal density (30,000 Jurkat, 25,000 MOLT-4, 500 A549, 1500 HT-29, 2000 PANC-1, 5000 A2780, 500 HeLa, 1500 MCF-7, 2000 SAOS-2 and 2000 MRC-5 cells/well) in 100 µL of culture medium, and adherent cells were allowed to reattach overnight. Thereafter, the cells were treated with 100 µL of either corresponding alkaloids or doxorubicin stock solutions to obtain the desired concentrations and incubated in 5% CO2 at 37 °C. WST-1 reagent diluted 4-fold with PBS (50 µL) was added 48 h after treatment. Absorbance was measured after 3 h incubation with WST-1 at 440 nm. The measurements were performed in a Tecan Infinite M200 spectrometer (Tecan Group, Männedorf, Switzerland). All experiments were performed at least three times with triplicate measurements at each drug concentration per experiment. The viability was quantified as described previously according to the following formula: (%) viability = (Asample − Ablank)/(Acontrol − Ablank) × 100, where A is the absorbance of the employed WST-1 formazan measured at 440 nm. The viability of the treated cells was normalized to the viability of cells treated with 0.1% DMSO (Sigma-Aldrich) as a vehicle control.

[2] = tested on: HeLa (cervix adenocarcinoma); assay: WST-1 cytotoxicity assay, HeLa; format: cell-based; conditions: Homo sapiens, c = 10 μM, 48 h, percent of proliferation of untreated control cells, read-out: Cell proliferation, HeLa
Text: as §1, §2

[3] = tested on: MCF-7 (breast adenocarcinoma); assay: WST-1 cytotoxicity assay, MCF-7; format: cell-based; conditions: Homo sapiens, MCF7; c = 10 μM, 48 h, percent of proliferation of untreated control cells; read-out: Cell proliferation, MCF-7
Text: as §1, §2

[4] = tested on: PANC-1 (pancreas epithelioid carcinoma); assay: WST-1 cytotoxicity assay, PANC-1; format: cell-based; conditions: Homo sapiens, c = 10 μM, 48 h, percent of proliferation of untreated control cells, read-out: Cell proliferation, PANC-1
Text: as §1, §2

hBuChE = hBuChE (Homo sapiens, UniProt P06276); assay: biochemical; format: biochemical; conditions: mean ± SEM of three independent measurements, each in triplicate; read-out: hBuChE IC50
Chain of hBuChE (P06276 29-602): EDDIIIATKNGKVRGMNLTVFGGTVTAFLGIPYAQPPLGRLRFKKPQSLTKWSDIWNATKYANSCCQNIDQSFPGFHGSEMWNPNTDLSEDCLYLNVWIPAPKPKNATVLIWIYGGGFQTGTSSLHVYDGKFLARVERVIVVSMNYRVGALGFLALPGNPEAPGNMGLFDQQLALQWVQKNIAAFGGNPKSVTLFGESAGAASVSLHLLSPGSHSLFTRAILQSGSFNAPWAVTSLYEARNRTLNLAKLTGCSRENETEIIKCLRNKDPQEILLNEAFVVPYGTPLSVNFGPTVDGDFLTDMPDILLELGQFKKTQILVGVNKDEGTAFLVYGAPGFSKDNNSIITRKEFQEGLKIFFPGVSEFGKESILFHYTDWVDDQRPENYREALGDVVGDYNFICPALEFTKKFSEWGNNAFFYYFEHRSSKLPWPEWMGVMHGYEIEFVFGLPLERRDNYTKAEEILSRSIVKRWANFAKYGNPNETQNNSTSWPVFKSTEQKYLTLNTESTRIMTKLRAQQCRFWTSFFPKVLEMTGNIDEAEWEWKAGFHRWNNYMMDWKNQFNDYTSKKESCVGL
Method: (§3) The hAChE and hBuChE activities were determined using a modified method of Ellman with acetylthiocholine iodide (ATChI) and butyrylthiocholine iodide (BuTChI) as substrates, respectively.

hAChE = hAChE (Homo sapiens, UniProt P22303); assay: biochemical; format: biochemical; conditions: for IC50: mean ± SEM of three independent measurements, each in triplicate; for SI for hAChE: selectivity index, ratio hBuChE IC50/hAChE IC50
Chain of hAChE (P22303 32-614): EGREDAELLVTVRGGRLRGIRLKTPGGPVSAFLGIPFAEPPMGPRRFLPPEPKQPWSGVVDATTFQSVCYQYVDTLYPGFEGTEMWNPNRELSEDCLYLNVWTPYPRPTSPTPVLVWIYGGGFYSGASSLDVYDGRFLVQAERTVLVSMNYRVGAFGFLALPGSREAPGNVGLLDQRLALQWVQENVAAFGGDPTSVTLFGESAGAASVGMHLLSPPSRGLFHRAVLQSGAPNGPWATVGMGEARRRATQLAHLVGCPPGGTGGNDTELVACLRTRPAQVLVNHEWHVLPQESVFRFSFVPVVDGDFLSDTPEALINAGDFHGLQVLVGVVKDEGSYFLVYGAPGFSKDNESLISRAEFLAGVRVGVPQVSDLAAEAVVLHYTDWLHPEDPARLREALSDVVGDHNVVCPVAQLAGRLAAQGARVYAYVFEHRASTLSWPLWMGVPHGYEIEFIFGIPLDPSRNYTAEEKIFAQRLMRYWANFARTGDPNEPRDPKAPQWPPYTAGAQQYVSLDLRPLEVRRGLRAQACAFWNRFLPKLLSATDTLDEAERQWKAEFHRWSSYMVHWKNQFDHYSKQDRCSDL
Method: as §3

[5] = tested on: Jurkat (acute T cell leukemia); assay: WST-1 cytotoxicity assay, Jurkat; format: cell-based; conditions: Homo sapiens, c = 10 μM, 48 h, percent of proliferation of untreated control cells
Text: as §1, §2

A549 (lung carcinoma) = assay: WST-1 cytotoxicity assay, A549; format: cell-based; conditions: Homo sapiens, c = 10 μM, 48 h, percent of proliferation of untreated control cells, read-out: Cell proliferation, A549
Text: as §1, §2

[6] = tested on: HT-29 (colorectal adenocarcinoma); assay: WST-1 cytotoxicity assay, HT-29; format: cell-based; conditions: Homo sapiens, c = 10 μM, 48 h, percent of proliferation of untreated control cells, read-out: Cell proliferation, HT-29
Text: as §1, §2

[7] = tested on: A2780 (ovarian carcinoma); assay: WST-1 cytotoxicity assay, A2780; format: cell-based; conditions: Homo sapiens, c = 10 μM, 48 h, percent of proliferation of untreated control cells, read-out: Cell proliferation, A2780
Text: as §1, §2

SAOS-2 (osteosarcoma) = assay: WST-1 cytotoxicity assay, SAOS-2; format: cell-based; conditions: Homo sapiens, c = 10 μM, 48 h, percent of proliferation of untreated control cells, read-out: Cell proliferation, SAOS-2
Text: as §1, §2

[8] = tested on: MOLT-4 (acute lymphoblastic leukemia); assay: WST-1 cytotoxicity assay, MOLT-4; format: cell-based; conditions: Homo sapiens, c = 10 μM, 48 h, percent of proliferation of untreated control cells, read-out: Cell proliferation, MOLT-4
Text: as §1, §2

in vitro = conditions: for PAMPA-BBB prediction of penetration in the CNS: class from Pe
Method: The PAMPA assay was performed as previously described.

GSK-3β = GSK-3β (Homo sapiens, UniProt P49841); assay: GSK-3β assay (Kinase-Glo Kit); format: biochemical; conditions: tested at 10 µM compound concentration; read-out: GSK-3β (% inhib.)
Chain of GSK-3β (P49841 whole entry): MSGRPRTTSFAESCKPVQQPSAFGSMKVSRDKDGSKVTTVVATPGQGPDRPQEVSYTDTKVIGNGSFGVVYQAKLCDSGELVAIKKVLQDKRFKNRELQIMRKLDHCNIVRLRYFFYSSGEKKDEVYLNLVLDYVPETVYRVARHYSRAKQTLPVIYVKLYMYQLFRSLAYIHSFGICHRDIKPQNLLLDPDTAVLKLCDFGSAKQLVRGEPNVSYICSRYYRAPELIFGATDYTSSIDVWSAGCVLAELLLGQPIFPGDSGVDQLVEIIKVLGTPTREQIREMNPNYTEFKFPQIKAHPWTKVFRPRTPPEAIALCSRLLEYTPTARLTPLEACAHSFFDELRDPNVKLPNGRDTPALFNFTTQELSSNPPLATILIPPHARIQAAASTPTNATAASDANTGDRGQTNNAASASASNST
Method: The GSK-3β assay was performed by using Kinase-Glo Kit obtained from Promega (Promega Biotech Iberica, SL, Madrid, Spain) as described previously.

Molecule COC1C=CC23c4cc5c(cc4CN(CC2OC(=O)C(C)C)C3C1)OCO5 (centres unmarked) [Compound 1c, 11-O-Isobutanoylhaemanthamine] has an activity at 10 µM [1] of 95 ± 7%, an activity at 10 µM [2] of 74 ± 8% and an activity at 10 µM [3] of 103 ± 7%. It also gave an activity at 10 µM [4] of 85 ± 13%, an IC50 (hBuChE) of 203 ± 8 µM and an IC50 (hAChE) of over 500 µM. The “SI for hAChE” value (hAChE) was under 0.4, the activity at 10 µM [5] was 110 ± 3% and the activity at 10 µM (A549 (lung carcinoma)) was 84 ± 3%. The activity at 10 µM [6] was 82 ± 17%, the activity at 10 µM [7] was 123 ± 9% and the activity at 10 µM (SAOS-2 (osteosarcoma)) was 85 ± 15%. For the same molecule, the viability at 10 µM [8] was 99 ± 8%.

With CN(C)CCCN1c2ccccc2Sc2ccccc21 [Promazine, reference compound] the Papp (in vitro; pig, PAMPA, PAMPA-BBB Permeability (Pe)) was 8.6 ×10⁻⁶ cm/s.

For COC1C=CC23c4cc5c(cc4CN(CC2OC(=O)c2ccccc2)C3C1)OCO5 (centres unmarked) [Compound 1g, 11-O-Benzoylhaemanthamine], the “PAMPA-BBB prediction of penetration in the CNS” value (in vitro) was “CNS+ (CNS(+): high BBB permeation predicted with Pe (10^−6 cm.s^−1) > 4.0)”, the “PAMPA-BBB prediction of penetration in the CNS” value (in vitro; listed as 18g) was “CNS +” and the activity at 10 µM [1] was 101 ± 5%. It also gave an activity at 10 µM [2] of 98 ± 2%, an activity at 10 µM [3] of 108 ± 10% and an inhibition at 10 µM (GSK-3β) of 11 ± 2%. It also gave an activity at 10 µM [4] of 100 ± 10%, an IC50 (hBuChE) of 5.8 ± 0.3 µM and an IC50 (hAChE) of 294 ± 25 µM. The “SI for hAChE” value (hAChE) was 0.02, the activity at 10 µM [5] was 83 ± 11% and the activity at 10 µM (A549 (lung carcinoma)) was 98 ± 2%. For the same molecule, the activity at 10 µM [6] was 110 ± 17%, the activity at 10 µM [7] was 120 ± 10% and the activity at 10 µM (SAOS-2 (osteosarcoma)) was 104 ± 9%. The viability at 10 µM [8] was 110 ± 19%.

In the case of COC1C=CC23c4cc5c(cc4CN(CC2OC(=O)c2cccc(Cl)c2)C3C1)OCO5 (centres unmarked) [Compound 1h, 11-O-(3-Chlorobenzoyl)haemanthamine], the IC50 (hBuChE) is reported as 80.2 ± 10.2 µM, the IC50 (hAChE) is reported as 85.1 ± 6.4 µM and the “SI for hAChE” value (hAChE) is reported as 0.9.

Molecule CCCC(=O)OC1CN2Cc3cc4c(cc3C13C=CC(OC)CC23)OCO4 (centres unmarked) [Compound 1f, 11-O-Butanoylhaemanthamine] has an activity at 10 µM [1] of 87 ± 14%, an activity at 10 µM [2] of 88 ± 3% and an activity at 10 µM [3] of 96 ± 13%. The activity at 10 µM [4] was 99 ± 6%, the IC50 (hBuChE) was 140 ± 21 µM and the IC50 (hAChE) was over 500 µM. For the same molecule, the “SI for hAChE” value (hAChE) was under 0.3, the activity at 10 µM [5] was 90 ± 12% and the activity at 10 µM (A549 (lung carcinoma)) was 106 ± 12%. The activity at 10 µM [6] was 101 ± 3%, the activity at 10 µM [7] was 104 ± 8% and the activity at 10 µM (SAOS-2 (osteosarcoma)) was 104 ± 7%. The viability at 10 µM [8] was 101 ± 18%.

For CCC(=O)OC1CN2Cc3cc4c(cc3C13C=CC(OC)CC23)OCO4 (centres unmarked) [Compound 1b, 11-O-Propionylhaemanthamine], the activity at 10 µM [1] was 102 ± 13%, the activity at 10 µM [2] was 69 ± 11% and the activity at 10 µM [3] was 85 ± 7%. For the same molecule, the activity at 10 µM [4] was 70 ± 13%, the IC50 (hBuChE) was 437 ± 38 µM and the IC50 (hAChE) was over 500 µM. For the same molecule, the “SI for hAChE” value (hAChE) was under 0.9, the activity at 10 µM [5] was 104 ± 3% and the activity at 10 µM (A549 (lung carcinoma)) was 84 ± 3%. The activity at 10 µM [6] was 79 ± 15%, the activity at 10 µM [7] was 104 ± 3% and the activity at 10 µM (SAOS-2 (osteosarcoma)) was 96 ± 16%. It also gave a viability at 10 µM [8] of 97 ± 8%.
